# Experiments:
# [1] = biological target: Dual specificity calcium/calmodulin-dependent 3',5'-cyclic nucleotide phosphodiesterase 1A (Homo sapiens, UniProt P54750); experiment: Ca2+-Calmodulin Dependent PDE Enzyme Assays: PDE1B, PDE1A, and PDE1C are cloned and purified following standard protein generation procedures. The assay buffer is prepared to give a final concentration in the assay of 50 mM Tris-HCl, 50 mM MgCl2, 4 mM CaCl2, 0.1% Bovine serum albumin and 6 U/ml Calmodulin in water, at pH 7.5. The final enzyme concentration is 0.25, 0.074 and 0.0012 nM, for PDE1A, PDE1B and PDE1C respectively. The reactions are started by addition of the substrate, [3H]cAMP, to give a final concentration of 47 nM.
# Dual specificity calcium/calmodulin-dependent 3',5'-cyclic nucleotide phosphodiesterase 1A, sequence (P54750 whole entry): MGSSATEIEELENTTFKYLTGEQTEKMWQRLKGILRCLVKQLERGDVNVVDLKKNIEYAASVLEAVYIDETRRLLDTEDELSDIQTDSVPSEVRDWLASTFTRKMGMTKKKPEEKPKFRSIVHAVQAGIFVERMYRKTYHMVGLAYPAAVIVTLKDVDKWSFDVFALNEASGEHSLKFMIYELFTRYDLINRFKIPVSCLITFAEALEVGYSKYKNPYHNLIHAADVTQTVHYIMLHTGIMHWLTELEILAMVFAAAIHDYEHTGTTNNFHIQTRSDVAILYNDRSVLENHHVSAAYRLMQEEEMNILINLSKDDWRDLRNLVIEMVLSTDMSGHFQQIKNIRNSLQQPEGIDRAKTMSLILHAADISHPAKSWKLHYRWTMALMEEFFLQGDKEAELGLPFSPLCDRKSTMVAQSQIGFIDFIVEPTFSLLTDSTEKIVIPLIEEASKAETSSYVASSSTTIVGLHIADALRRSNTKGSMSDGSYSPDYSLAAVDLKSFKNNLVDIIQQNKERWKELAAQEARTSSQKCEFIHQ
# [2] = biological target: cGMP-inhibited 3',5'-cyclic phosphodiesterase 3A (Homo sapiens, UniProt Q14432); experiment: PDE Enzyme Assays Using [3H]cAMP as Substrate: The following phosphodiesterase activities are measured using [3H]cAMP as reaction substrate: human PDE3A (catalytic domain) and human PDE4D. Both enzymes are cloned and purified following standard procedures. The assay buffer is prepared to give a final concentration in the assay of 50 mM Tris-HCl, 8.3 mM MgCl2, 1.7 mM ethylenediaminetetraacetic acid (EDTA) and 0.1% Bovine serum albumin at pH 7.5. Final enzyme concentrations are 0.008 and 0.021 nM for PDE3A and PDE4D, respectively. Reactions are started by addition of the substrate, [3H]cAMP, to give a final concentration of 47 nM.
# cGMP-inhibited 3',5'-cyclic phosphodiesterase 3A, sequence (Q14432 whole entry, the tested form may be a part): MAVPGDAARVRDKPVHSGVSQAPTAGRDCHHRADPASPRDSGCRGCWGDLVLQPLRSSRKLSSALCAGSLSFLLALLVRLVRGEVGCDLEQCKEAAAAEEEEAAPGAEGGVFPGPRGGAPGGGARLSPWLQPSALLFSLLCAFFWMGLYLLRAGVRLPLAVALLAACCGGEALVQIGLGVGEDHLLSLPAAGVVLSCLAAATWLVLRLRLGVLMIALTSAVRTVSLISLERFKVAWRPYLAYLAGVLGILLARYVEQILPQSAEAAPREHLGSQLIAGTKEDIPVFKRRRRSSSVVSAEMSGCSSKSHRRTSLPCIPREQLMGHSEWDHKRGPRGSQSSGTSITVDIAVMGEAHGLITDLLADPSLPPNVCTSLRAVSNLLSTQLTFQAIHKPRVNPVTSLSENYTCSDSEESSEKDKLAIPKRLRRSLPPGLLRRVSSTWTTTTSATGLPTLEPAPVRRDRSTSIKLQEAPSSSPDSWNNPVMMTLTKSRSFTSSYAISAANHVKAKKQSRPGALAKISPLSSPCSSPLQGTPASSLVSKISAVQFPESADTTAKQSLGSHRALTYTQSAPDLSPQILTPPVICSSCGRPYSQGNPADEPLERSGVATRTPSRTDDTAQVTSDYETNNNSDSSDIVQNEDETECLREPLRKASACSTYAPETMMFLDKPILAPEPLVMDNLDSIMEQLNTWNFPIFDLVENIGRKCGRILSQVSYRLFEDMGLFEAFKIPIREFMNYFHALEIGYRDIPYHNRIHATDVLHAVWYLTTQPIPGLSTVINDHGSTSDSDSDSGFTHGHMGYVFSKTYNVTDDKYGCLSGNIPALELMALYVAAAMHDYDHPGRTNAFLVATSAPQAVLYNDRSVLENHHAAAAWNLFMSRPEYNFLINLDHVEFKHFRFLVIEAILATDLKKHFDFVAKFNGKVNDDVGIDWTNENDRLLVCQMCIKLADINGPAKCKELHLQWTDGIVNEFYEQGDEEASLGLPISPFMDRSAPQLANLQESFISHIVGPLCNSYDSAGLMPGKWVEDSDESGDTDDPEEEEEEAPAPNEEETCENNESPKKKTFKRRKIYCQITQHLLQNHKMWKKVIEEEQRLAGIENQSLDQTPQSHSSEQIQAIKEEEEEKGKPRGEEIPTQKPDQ
# [3] = biological target: Rod cGMP-specific 3',5'-cyclic phosphodiesterase alpha/beta (Homo sapiens, UniProt P16499+P35913); experiment: PDE Enzyme Assays Using [3H]cGMP as Substrate: The following phosphodiesterase activities are measured using [3H]cGMP as reaction substrate: human PDE6A/6B. The catalytic active form of human PDE6 is a dimer composed of a α (human PDE6A) and β subunits (human PDE6B). The dimer of human PDE6A/6B is produced by the coexpression and purification strategy, using two purification steps, i.e., NiNTA and anti-FLAG Sepharose chromatography. The assay buffer is prepared to give a final concentration in the assay of 50 mM Tris-HCl, 8.3 mM MgCl2, 1.7 mM EDTA and 0.1% Bovine serum albumin at pH 7.5. The final enzyme concentration is 5 nM. The reactions are started by addition of the substrate, [3H]cGMP, to give a final concentration of 80 nM.; format: protein-complex assay
# Rod cGMP-specific 3',5'-cyclic phosphodiesterase alpha/beta, sequence (P35913 whole entry): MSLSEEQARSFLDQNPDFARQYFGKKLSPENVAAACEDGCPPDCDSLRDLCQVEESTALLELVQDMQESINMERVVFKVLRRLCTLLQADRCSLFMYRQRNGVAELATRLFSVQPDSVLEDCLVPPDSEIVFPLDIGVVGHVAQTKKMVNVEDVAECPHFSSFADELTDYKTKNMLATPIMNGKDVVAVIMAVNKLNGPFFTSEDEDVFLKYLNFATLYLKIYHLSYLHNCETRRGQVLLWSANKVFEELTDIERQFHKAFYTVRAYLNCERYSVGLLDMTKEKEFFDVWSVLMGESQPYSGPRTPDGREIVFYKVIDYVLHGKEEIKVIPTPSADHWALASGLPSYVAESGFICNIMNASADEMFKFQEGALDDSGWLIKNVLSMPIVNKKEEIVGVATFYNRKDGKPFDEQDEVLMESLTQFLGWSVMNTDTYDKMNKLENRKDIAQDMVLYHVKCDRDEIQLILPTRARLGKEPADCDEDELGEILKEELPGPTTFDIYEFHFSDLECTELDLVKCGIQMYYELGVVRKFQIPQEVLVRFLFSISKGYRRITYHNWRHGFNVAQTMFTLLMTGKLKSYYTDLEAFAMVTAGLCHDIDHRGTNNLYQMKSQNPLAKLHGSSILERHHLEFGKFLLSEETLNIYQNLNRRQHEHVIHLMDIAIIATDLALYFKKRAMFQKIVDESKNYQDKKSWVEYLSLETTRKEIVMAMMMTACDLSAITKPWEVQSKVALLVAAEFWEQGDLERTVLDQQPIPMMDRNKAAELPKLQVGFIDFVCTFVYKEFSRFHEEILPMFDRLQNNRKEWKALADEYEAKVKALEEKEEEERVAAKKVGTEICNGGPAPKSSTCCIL
# Rod cGMP-specific 3',5'-cyclic phosphodiesterase alpha/beta, sequence (P16499 whole entry): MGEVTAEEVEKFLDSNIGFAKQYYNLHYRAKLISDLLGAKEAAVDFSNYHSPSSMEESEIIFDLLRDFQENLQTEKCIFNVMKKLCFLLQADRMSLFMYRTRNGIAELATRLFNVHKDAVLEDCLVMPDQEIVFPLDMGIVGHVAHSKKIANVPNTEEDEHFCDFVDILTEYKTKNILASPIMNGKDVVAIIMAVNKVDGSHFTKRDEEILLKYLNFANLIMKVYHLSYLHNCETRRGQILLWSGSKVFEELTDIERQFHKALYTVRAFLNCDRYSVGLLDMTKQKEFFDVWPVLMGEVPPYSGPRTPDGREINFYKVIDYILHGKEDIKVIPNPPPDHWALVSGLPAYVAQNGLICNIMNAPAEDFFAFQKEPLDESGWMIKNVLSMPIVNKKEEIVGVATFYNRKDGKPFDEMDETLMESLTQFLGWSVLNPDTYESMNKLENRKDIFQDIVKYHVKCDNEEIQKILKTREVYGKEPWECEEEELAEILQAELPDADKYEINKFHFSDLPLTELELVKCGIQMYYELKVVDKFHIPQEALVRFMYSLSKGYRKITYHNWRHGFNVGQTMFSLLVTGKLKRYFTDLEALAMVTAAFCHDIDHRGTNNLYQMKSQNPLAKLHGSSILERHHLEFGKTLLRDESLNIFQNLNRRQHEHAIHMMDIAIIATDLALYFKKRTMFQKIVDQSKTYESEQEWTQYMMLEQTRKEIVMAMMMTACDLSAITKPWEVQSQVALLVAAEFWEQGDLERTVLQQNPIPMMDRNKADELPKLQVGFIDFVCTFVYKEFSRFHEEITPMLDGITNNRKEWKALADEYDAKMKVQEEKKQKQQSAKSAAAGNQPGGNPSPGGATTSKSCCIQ
Compound,IC50 [1] [nM],IC50 [2] [nM],IC50 [3] [nM]
CCCCn1c(=O)c2nnc(C3(C4CC4)CC3)n2c2ncc(CO)cc21,0.996,> 100000,3850
CCCCn1c(=O)c2nnc(C3(C4CC4)CC3)n2c2ncc(CC)cc21,0.214,> 100000,982

# Source: ChEMBL document CHEMBL5728860, “[1,2,4]Triazolo[4,3-A]pyrazin-6(5H)-one derivatives” (2021)
